Measurements: US6692754B1, “Cosmetic composition” (Kyowa Hakko Kogyo Co., Ltd., priority 1999, dated 2004)

Assays:
[1] = test system: epidermal keratinized cells derived from human neonate; experiment: Human epidermal cell proliferation activity (MTT method); type: cell-based; conditions: for Epidermal Cell Proliferation Activity: 4 days, 0 mM = 100
Method: The human epidermal cell proliferation activity was assayed according to MTT method [Cell Culture III, 4477-4482 (1984)] by incorporating 3-(4,5-dimethylthiazol-2-yl)-2,5-diphenyltetrazolium bromide (MTT) into cells and measuring the resultant MTT formazan by colorimetry at the wave length of 570 nm (Reference, 650 nm).
That is, epidermal keratinized cells derived from human neonate (Sanko Junyaku Co., Ltd.) was cultivated in KGM medium (Sanko Junyaku Co., Ltd.) in an atmosphere of 5% CO2 at 37° C. by the stationary phase, mixed with Hyp and N-Acetyl-Hyp and cultivated for 4 days. Then, the culture broth was mixed with 1/10 volume of 5 mg/ml MTT reagent in a phosphate buffer (pH 7.4, free of calcium and magnesium), and cultivated in an atmosphere of 5% CO2 at 37° C. for 4 hours. After removing the medium, MTT formazan in the cell was extracted with isopropanol containing 0.4 mol/L hydrochloric acid, and the absorbance at 570 nm was measured in comparison with that of 630 nm.

mouse epidermal cells = experiment: Mouse epidermal cell proliferation activity (MTT); type: cell-based, C3H mouse; conditions: for Epidermal Cell Proliferation Activity: 6 days, 0 μM = 100
Method: Epidermis was peeled from 3 days old C3H mouse according to Method of Tanigaki, et al., [The Japanese Journal of Dermatology, 1145-1152 (1989)].
The epidermis was treated with 0.25% trypsin and centrifuged at 1500 rpm for 5 minutes to obtain the cells. The cells were inoculated onto DMEM medium containing 10% fetal bovine serum and cultivated at 37° C. for 1 day to give the mouse epidermal cells.
The mouse epidermal cells were cultivated on MCDB 153 medium free of serum containing the test compound (Hyp or N-Acetyl-Hyp) for 6 days, mixed with 1/10 volume of 5 mg/ml MTT reagent in phosphate buffer (pH 7.4, free of calcium and magnesium), and then cultivated in an atmosphere of 5% CO2 at 37° C. for 4 hours. After removing the medium, MTT formazan in the cell was extracted with isopropanol containing 0.4 mol/L hydrochloric acid, and the absorbance at 570 nm was measured in comparison with that of 630 nm.

[2] = test system: Fibroblast derived from human neonate; experiment: Collagen synthesis promotion activity in human fibroblast (3H-glycine incorporation, collagenase digestion); type: cell-based; conditions: for Collagen Synthetic Promotion Activity: 72 hours, relative to control (0 mM = 100); for Collagen synthetic promotion activity (in words): human fibroblast
Method: Assay of synthetic collagen was conducted by the following method according to “Experimental Method of Collagen” (Written by Nagai, et al., Kodansha Scientific).
Fibroblast derived from human neonate (Sanko Junyaku Co., Ltd.) was cultivated in DMEM medium [Virology, 8, 396 (1959)] containing 10% fetal bovine serum under conditions of 5% CO2 at 37° C. by the stationary phase. ^3H marked glycine and a test compound was added thereto, and further cultivated for 72 hours. DMEM medium was prepared by mixing Dulbecco's Modified Eagle's Medium “Nissui” (2) (manufactured by Nissui Pharmaceutical) with 4 mmol/L glutamine, an optimum dose of sodium hydrogencarbonate, 10 mmol/L HEPES, 50 U/ml penicillin G potassium, 50 μg/ml streptomycin and 10% fetal bovine serum.
To the resultant culture broth was added 500 μmol/L phenylmethanesulfonyl fluoride (PMSF), and the cells and medium were recovered, crashed with a sonicater and the protein was extracted.
To the extract were added 100 μmol/L bovine serum albumin (BSA) and 10% trichloroacetic acid (TCA), and the resultant mixture was centrifuged at 3000 rpm for 5 minutes to recover the precipitate.
To the precipitate was added 0.2 mol/L sodium hydroxide at a density of 8 μl per 1 cm^2 of the bottom area of culture vessel used for said cultivation, and the resultant mixture was neutralized with an equivalent amount of 1 mol/L phosphate buffer.
To 100 μl of the resultant protein solution were added 25 mmol/L calcium chloride (10 μmol/L), 62.5 mmol/L N-ethylmaleimide (20 μmol/L) and 20 units of collagenase (manufactured by Wako Pure Chemical Industries, Ltd.; for analyzing the collagen), and the resultant mixture was allowed to react at 37° C. for 90 minutes.
The reaction mixture was filtered with an ultrafilter (molecular weight: 10,000), and the protein fraction of the filtrate was subjected to radiation activity (CDP) assay, which was assigned as freshly prepared collagen. The radiation activity (NCDP) of the non-filtered protein fraction was assayed, and collagen synthetic ratio was calculated according to the following formula 1.
Relative collagen synthetic promotion activity (change in the collagen synthesis) was calculated according to the following formula 2, comparing with the relative value of the collagen synthetic ratio of the test compounds against control. [formula] [formula]

[3] = test system: skin of cubital fossa of healthy female panelists; experiment: Evaluation of moisture retention function (1): continuous application, skin conductivity (SKICON-200); type: in vivo, human
Method: Change in the moisture retention function by continuous use was examined for the evaluation of the skin quality-improving effect of Compositions (1)-(8) prepared in Examples 1-8. The compositions are applied to the test part/cubital fossa of 4 healthy female panelists in 23-28 years old in an amount of 2 μl/cm^2 twice a day in the morning and evening for 3 weeks or 2 months. Moisture content in the test part before the application of the cosmetic composition was measured in the morning with the elapse of time. The probe was contacted vertically on the test part, and the skin conductivity (=moisture content) was assayed with SKICON-200 (manufactured by IBS) as a measuring machine. When the measured value is high, it means that the moisture content is high. Change in the skin conductivity (relative conductivity) on the test part was calculated according to the following formula 3, as a relative value to the change in the conductivity on the non-treated part. [formula]

[4] = test system: skin of cubital fossa of healthy female panelists; experiment: Evaluation of moisture retention function (2): single application, skin conductivity; type: in vivo, human
Method: Concentration dependency on moisture retention effect of N-Acetyl-Hyp was evaluated by the single application. The moisture retention was assayed on the test part/cubital fossa of 12 healthy female panelists in 23-32 years old, and each of the test compositions was applied thereto in an amount of 2 μl/cm^2 and allowed to leave. Three hours later, the moisture content of the test part was measured, and the moisture retention effect was evaluated in terms of the relative conductivity when the moisture content before the application was defined as 100%.

## O=C(O)[C@@H]1C[C@@H](O)CN1 [Hyp, trans-4-hydroxy-L-proline]
[1]
  Concentration dependence of proliferation activity: Proliferation activity depending on the concentration was found
  Epidermal cells proliferation activity (in words): observed
[1]; 10 mM
  Epidermal Cell Proliferation Activity: 111.6
[1]; 100 mM
  Epidermal Cell Proliferation Activity: 135.1
Mouse epidermal cells
  Epidermal proliferation activity (in words): found
Mouse epidermal cells; 1 μM
  Epidermal Cell Proliferation Activity: 88.6
Mouse epidermal cells; 3 μM
  Epidermal Cell Proliferation Activity: 107.5
Mouse epidermal cells; 10 μM
  Epidermal Cell Proliferation Activity: 126
[2]; 0.1 mM test compound
  Collagen Synthetic Promotion Activity: 108.3
[2]; 1 mM test compound
  Collagen Synthetic Promotion Activity: 117.1
[2]
  Collagen synthetic promotion activity (in words): observed
[3]
  Skin moisture content / moisture retention function on continuous application (in words): an improvement in the moisture retention function was observed

## CC(=O)N1C[C@H](O)C[C@H]1C(=O)O [N-Acetyl-Hyp, N-acetyl-trans-4-hydroxy-L-proline]
[1]
  Epidermal cells proliferation activity (in words): observed
[1]; 10 mM
  Epidermal Cell Proliferation Activity: 108.7
[1]; 100 mM
  Epidermal Cell Proliferation Activity: 85.9
Mouse epidermal cells
  Epidermal proliferation activity (in words): found
Mouse epidermal cells; 1 μM
  Epidermal Cell Proliferation Activity: 110.7
Mouse epidermal cells; 3 μM
  Epidermal Cell Proliferation Activity: 118.2
Mouse epidermal cells; 10 μM
  Epidermal Cell Proliferation Activity: 121.9
[2]; 0.1 mM test compound
  Collagen Synthetic Promotion Activity: 121.1
[2]; 1 mM test compound
  Collagen Synthetic Promotion Activity: 119.7
[2]
  Collagen synthetic promotion activity (in words): observed
[4]; 1% N-Acetyl-Hyp, single application 2 μl/cm2, three hours later, before application = 100%
  Relative Conductivity: 100%
[4]; 3% N-Acetyl-Hyp, single application, three hours later
  Relative Conductivity: 129%
[4]; 5% N-Acetyl-Hyp, single application, three hours later
  Relative Conductivity: 186%
[4]; 10% N-Acetyl-Hyp, single application, three hours later
  Relative Conductivity: 189%
[4]; single treatment
  Moisture retention effect by single treatment (in words): concentration dependent-moisture retention effect
[3]
  Moisture retention improving effect compared with collagen: an improving effect exceeding that of collagen was observed
  Skin moisture content / moisture retention function on continuous application (in words): an improvement in the moisture retention function was observed
